These results are taken from patent US11753403B2, “EIF4E inhibitors and uses thereof” (PIC Therapeutics, Inc., priority 2020, dated 2023).

One may read the IC50 as the concentration at which inhibition is half-maximal.

Sequence of Human eIF4E (aa 28-217) / biotin labeled 4G2 peptide (P06730 28-217): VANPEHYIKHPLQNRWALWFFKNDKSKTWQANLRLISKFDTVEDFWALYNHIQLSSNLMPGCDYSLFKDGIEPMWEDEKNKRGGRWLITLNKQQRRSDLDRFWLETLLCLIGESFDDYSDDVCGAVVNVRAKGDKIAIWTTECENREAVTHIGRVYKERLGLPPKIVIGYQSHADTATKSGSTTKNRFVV

The target in this assay is Human eIF4E (aa 28-217) / biotin labeled 4G2 peptide (Homo sapiens (Human), UniProt P06730). The experiment in a line: Human eIF4E/4G2 binding assay (TR-FRET). To be noted: Human eIF4E/4G2 TR-FRET binding assay; head says IC50, legend says EC50. The method, then:
Example 5. Compound Testing in Human eIF4E/4G2 Binding Assay
Human eIF4E (aa 28-217) with a C-terminal His-tag was expressed in E. coli in inclusion bodies. The protein was solubilized with 8 M urea and purified under denaturing conditions using nickel-charged HisTrap HP columns (GE Healthcare). The purified protein was then refolded by diluting in 20 mM Hepes pH 7.0, 0.5 M NaCl, 1 mM DTT, 1 mM EDTA, 0.5 M arginine plus 6 M urea, and then dialyzing overnight into the same buffer without the urea. The protein was further dialyzed into 20 mM Hepes, pH 6.5, 50 mM NaCl, 1 mM EDTA, 1 mM DTT, and concentrated using Hitrap SP sepharose FF columns (GE Healthcare). The concentrated protein was dialyzed into 20 mM Hepes, pH 7.0, 0.5M NaCl, 5 mM DTT and 10% glycerol, and stored at −80° C. until use.
Test compounds (3.43 mM stock in DMSO) were diluted 2-fold in series in DMSO (10 concentration points). Compound solutions (1.2 μl/well) were added into black 384-well polypropylene microplates (Matrix, Thermal Scientific). Twenty-two microliters per well of Assay Buffer (50 mM NaPi, pH 6.5, 50 mM KCl, 1 mM DTT and 0.5 mg/ml gamma globulin) and eight microliters per well of 82.5 nM purified eIF4E in Assay Buffer were added. The samples were incubated at room temperature (20-23° C.) for 4 hours. Biotin labeled 4G2 peptide (Ac-Lys-Gln-Tyr-Asp-Arg-Glu-Phe-Leu-Leu-Asp-Phe-Gln-Phe-Met-Pro-Lys(Aha-Bio)-NH2, 1.75 μM stock in DMSO) was diluted to 0.14 μM in Assay Buffer (without DTT) and 5 μl/well was added. The samples were incubated at room temperature for 20 min. Five microliters per well of 6.4 nM Eu-streptavidin (Eu-SA, Perkin Elmer) and 80 nM Allophycocyanin (APC)-anti His antibody (Columbia Biosciences) in Assay Buffer (without DTT) were then added and the samples were incubated at room temperature for 20 min.
Assay signals were monitored by reading excitation at 340 nm and emission fluorescence at 615 nm and 665 nm on an Envision reader (Perkin Elmer). Normalized TR-FRET (time-resolved fluorescence resonance energy transfer) assay signal (Rn) was calculated by the formula: Rn=[(A−Ba−C×D)/(D−Bd)]×(Dc−Bd) Where A is the fluorescence intensity of the sample at 665 nm, • D is the fluorescence intensity of the sample at 615 nm, • Ba and Bd are plate backgrounds at 665 nm and 615 nm, respectively, • Dc is the fluorescence intensity of 0.78 nM Eu-SA in the assay buffer at 615 nm The cross-talk factor (C) is determined by the following formula: C=(Ac−Ba)/(Dc−Bd) Where Ac is the fluorescence intensity of 0.78 nM Eu-SA in the assay buffer at 665 nm.
IC50 values were calculated using xLFit program (IDBS). Table 2 below lists EC50 of some compounds, wherein A represents EC50≤1 uM; B represents 1 uM<EC50≤10 uM; and C represents EC50>10 uM.
In general terms: TR-FRET usually uses a lanthanide donor and a delayed reading to cut background.
For `CNC(=O)N1CCN(c2nc(-c3ccc(Cl)c(Cl)c3)c(CC(C)C)s2)CC1C(=O)O` (centres unmarked) [I-251, 4-(4-(3,4-dichlorophenyl)-5-isobutylthiazol-2-yl)-1-(methylcarbamoyl)piperazine-2-carboxylic acid], the IC50 lay within 1000 to 10000 nM. Take `COc1cccc(-c2nc(NCC(Cc3ccccc3)C(=O)O)sc2C(C)C)c1` (centres unmarked) [I-28]: the IC50 is above 10000 nM. For the compound `COc1cccc(-c2nc(NCC(Cc3c[nH]c4ccccc34)C(=O)O)sc2C(C)C)c1` (centres unmarked) [I-36], the IC50 fell in the range of 1000 to 10000 nM. In the case of `CC(C)Cc1sc(N(CCC(=O)O)Cc2ccc[nH]2)nc1-c1ccc(Cl)c(Cl)c1` [I-110], the 50% inhibitory concentration (IC50) lay in the range of 1000 to 10000 nM. Next, `CC(C)Cc1sc(NCC(Cc2ccc(N)nc2)C(=O)O)nc1-c1ccc(Cl)c(Cl)c1` (centres unmarked) [I-153]: above 10000 nM; `CC(C)c1sc(NCC(Cc2cccc3c2OCO3)C(=O)O)nc1-c1ccc(Cl)c(Cl)c1` (centres unmarked) [I-2]: at most 1000 nM; `CC(C)Cc1sc(N(CCC(=O)O)Cc2ccccc2)nc1-c1ccc2[nH]ccc2c1` [I-85, 3-((4-(1H-indol-5-yl)-5-isobutylthiazol-2-yl)(benzyl)amino)propanoic acid]: 1000 to 10000 nM. The result for `COc1ncc(CC(CNc2nc(-c3ccc(Cl)c(Cl)c3)c(CC(C)C)s2)C(=O)O)cn1` (centres unmarked) [I-160] reads above 10000 nM; that for `CC(C)Cc1sc(NCC(Cc2cccc(O)c2)C(=O)O)nc1-c1ccc(Cl)c(Cl)c1` (centres unmarked) [I-21], 1000 to 10000 nM; that for `CC(C)Cc1sc(-c2ccc(C(F)(F)F)c(C(=O)O)c2)nc1-c1ccc(Cl)c(Cl)c1` [I-227], 1000 to 10000 nM.

On to `CC(C)c1sc(N(CCC(=O)O)Cc2ccccc2)nc1-c1ccc(F)c(F)c1` [I-77], for which the IC50 lay within 1000 to 10000 nM. The result for `CC(C)Cc1sc(NCC(NC(=O)c2ccccc2)C(=O)O)nc1-c1ccc(Cl)c(Cl)c1` (centres unmarked) [I-136, 2-benzamido-3-(4-(3,4-dichlorophenyl)-5-isobutylthiazol-2-ylamino)propanoic acid] reads 1000 to 10000 nM. Consider `CC(C)Cc1sc(N(CCC(=O)O)Cc2cccs2)nc1-c1ccc(Cl)c(Cl)c1` [I-65], for which the IC50 is at most 1000 nM. The result for `COc1ccc(-c2nc(Nc3ncc(-c4cccs4)cc3C(=O)O)sc2CC(C)C)cc1` [I-333] reads at most 1000 nM; that for `CC(C)Cc1sc(N(CCC(=O)O)Cc2ccccc2)nc1-c1ccc(-c2ccsc2)cc1` [I-126, 3-(benzyl(5-isobutyl-4-(4-(thiophen-3-yl)phenyl)thiazol-2-yl)amino)propanoic acid], at most 1000 nM. Next, `CC(C)Cc1sc(N(CCC(=O)NCCNC(=N)N)Cc2ccccc2)nc1-c1ccc(Cl)c(Cl)c1` [I-197, 3-(benzyl(4-(3,4-dichlorophenyl)-5-isobutylthiazol-2-yl)amino)-N-(2-guanidinoethyl) propanamide]: 1000 to 10000 nM; `COc1ccnc(Nc2nc(-c3ccc(Cl)c(Cl)c3)c(CC(C)C)s2)c1C(=O)O` [I-243]: at most 1000 nM; `CC(C)Cc1sc(-c2cc(C(=O)O)ccn2)nc1-c1ccc(Cl)c(Cl)c1` [I-238]: 1000 to 10000 nM. The result for `CC(C)Cc1sc(N(CCCCN(C)C)CCC(=O)O)nc1-c1ccc(Cl)c(Cl)c1` [I-147, 3-((4-(3,4-dichlorophenyl)-5-isobutylthiazol-2-yl)(4-(dimethylamino)butyl)amino) propanoic acid] reads 1000 to 10000 nM. On to `CC(C)Cc1sc(-c2ccc(-c3ccccc3)c(C(=O)O)c2)nc1-c1ccc(Cl)c(Cl)c1` [I-225], for which the IC50 is at most 1000 nM.

`CC(C)Cc1sc(N(CCC(=O)N2CCC(CN)CC2)Cc2ccccc2)nc1-c1ccc(Cl)c(Cl)c1` [I-135]: the IC50 fell in the range of 1000 to 10000 nM.

Turning to `CC(C)Cc1sc(N(CCC(=O)NS(C)(=O)=O)Cc2ccccc2)nc1-c1ccc(Cl)c(Cl)c1` [I-97, 3-(benzyl(4-(3,4-dichlorophenyl)-5-isobutylthiazol-2-yl)amino)-N-(methylsulfonyl)propanamide], the IC50 lay within 1000 to 10000 nM. The compound `COc1ccccc1CC(CNc1nc(-c2ccc(Cl)c(Cl)c2)c(CC(C)C)s1)C(=O)O` (centres unmarked) [I-20] came in with an IC50 of at most 1000 nM. Next, `CC(C)Cc1sc(NCC(Cc2cccc(C(N)=O)c2)C(=O)O)nc1-c1ccc(Cl)c(Cl)c1` (centres unmarked) [I-167]: 1000 to 10000 nM; `CC(C)Cc1sc(N(CCC(=N)N)Cc2ccccc2)nc1-c1ccc(Cl)c(Cl)c1` [I-230, 3-(benzyl(4-(3,4-dichlorophenyl)-5-isobutylthiazol-2-yl)amino)propanimidamide]: above 10000 nM. The result for `CC(C)c1sc(Nc2ncccc2C(=N)N)nc1-c1ccc(Cl)c(Cl)c1` [I-284, 2-(4-(3,4-dichlorophenyl)-5-isopropylthiazol-2-ylamino)nicotinimidamide] reads above 10000 nM.

`CC(C)Cc1sc(Nc2ccnc(C(=O)O)c2)nc1-c1ccc(Cl)c(Cl)c1` [I-220] showed an IC50 of 1000 to 10000 nM.

In turn, `CC(C)Cc1sc(Nc2ncc(-c3cccs3)cc2C(=O)O)nc1-c1ccc(OCC(N)=O)c(Cl)c1` [I-329, 2-(4-(4-(2-amino-2-oxoethoxy)-3-chlorophenyl)-5-isobutylthiazol-2-ylamino)-5-(thiophen-2-yl)nicotinic acid] registered an IC50 of at most 1000 nM. With `CC(C)Cc1sc(N(CCC(=O)O)Cc2ccccc2)nc1-c1ccc(Cl)cc1` [I-93], the IC50 lay in the range of 1000 to 10000 nM.

The compound `CC(C)Cc1sc(Nc2cc(-c3ccc(F)cc3)sc2C(=O)O)nc1-c1ccc(Cl)c(Cl)c1` [I-271] gave an IC50 of at most 1000 nM. Compound `CC(C)Cc1sc(N2CCN(C(=O)OC(C)C)C(C(=O)O)C2)nc1-c1ccc(Cl)c(Cl)c1` (centres unmarked) [I-253, 4-(4-(3,4-dichlorophenyl)-5-isobutylthiazol-2-yl)-1-(isopropoxycarbonyl)piperazine-2-carboxylic acid] registered an IC50 of 1000 to 10000 nM. For `CC(C)Cc1sc(NCC(Cc2ccc(S(N)(=O)=O)cc2)C(=O)O)nc1-c1ccc(Cl)c(Cl)c1` (centres unmarked) [I-176], the IC50 lay within 1000 to 10000 nM. Next, `CC(C)Cc1sc(N(CCC(=O)O)CCc2cccc(Cl)c2)nc1-c1ccc(Cl)c(Cl)c1` [I-94]: at most 1000 nM; `CC(C)Cc1sc(Nc2ccc(N3CCOCC3)c(C(=O)O)c2)nc1-c1ccc(Cl)c(Cl)c1` [I-211]: above 10000 nM. As for `CC(C)Cc1sc(N(CCS(=O)(=O)NC(=O)CCN)Cc2ccccc2)nc1-c1ccc(Cl)c(Cl)c1` [I-188], the IC50 is above 10000 nM. Next, `CC(C)c1sc(Nc2ncccc2C(=O)O)nc1-c1ccc(Cl)c(C(F)(F)F)c1` [I-261]: at most 1000 nM; `CC(C)Cc1sc(N(CCC(=O)O)CC2CCCCC2)nc1-c1ccc(Cl)c(Cl)c1` [I-87]: at most 1000 nM; `COC(=O)c1ccc(Nc2nc(-c3ccc(Cl)c(Cl)c3)c(CC(C)C)s2)o1` [I-288]: above 10000 nM. `CC(C)Cc1sc(Nc2nccc(-c3ccccc3)c2C(=O)O)nc1-c1ccc(Cl)c(Cl)c1` [I-241] came in with an IC50 of at most 1000 nM. The result for `O=C(O)C(CNc1nc(-c2ccc(Cl)c(Cl)c2)c(C2CC2)s1)Cc1ccc2[nH]ccc2c1` (centres unmarked) [I-17] reads at most 1000 nM; that for `CC(C)c1sc(NCC(Cc2cccc(F)c2)C(=O)O)nc1-c1ccc(Cl)c(Cl)c1` (centres unmarked) [I-5], 1000 to 10000 nM. Next, `CC(C)Cc1sc(NCC(C(=O)O)N(C)Cc2ccccc2)nc1-c1ccc(Cl)c(Cl)c1` (centres unmarked) [I-114, 2-(benzyl(methyl)amino)-3-(4-(3,4-dichlorophenyl)-5-isobutylthiazol-2-ylamino)propanoic acid]: 1000 to 10000 nM; `CC(C)c1sc(Nc2ncc(-c3cccs3)cc2C(=O)O)nc1-c1ccc(Cl)c(C(F)(F)F)c1` [I-263]: at most 1000 nM. Next, `CC(C)Cc1sc(NCC(Cc2ccnc(O)c2)C(=O)O)nc1-c1ccc(Cl)c(Cl)c1` (centres unmarked) [I-164]: 1000 to 10000 nM; `CC(C)Cc1sc(Nc2cc(F)cc(C(=O)O)c2)nc1-c1ccc(Cl)c(Cl)c1` [I-212]: at most 1000 nM; `CC(C)Cc1sc(NCC(CCCCN)C(=O)O)nc1-c1ccc(Cl)c(Cl)c1` (centres unmarked) [I-125, 6-amino-2-((4-(3,4-dichlorophenyl)-5-isobutylthiazol-2-ylamino)methyl)hexanoic acid]: above 10000 nM. In the case of `CC(C)Cc1sc(Nc2cc(C(C)(C)C)sc2C(=O)O)nc1-c1ccc(Cl)c(Cl)c1` [I-274], the IC50 is at most 1000 nM.
